According to ChEMBL document CHEMBL1122822 (1985):

How the values were obtained:
MCF7 [1] = experiment: Effect of compound with 10e-8 M estradiol on the growth of MCF-7 cells at a concentration of 10 e-6 M, percentage of control value being 32; format: functional, Homo sapiens
MCF7 [2] = experiment: Effect on the growth of MCF-7 cells at a concentration of 10 e-7 M, percentage of control value being 36; format: functional, Homo sapiens
MCF7 [3] = experiment: Effect of compound on the growth of MCF-7 cells at a concentration of 10 e-6 M Experiment 2, percentage of control value being 13; format: functional, Homo sapiens
MCF7 [4] = experiment: Effect of compound on the growth of MCF-7 cells at a concentration of 10 e-6 M, percentage of control value being 23; format: functional, Homo sapiens
MCF7 [5] = experiment: Effect of compound on the growth of MCF-7 cells at a concentration of 10 e-7 M Experiment 2, percentage of control value being 15; format: functional, Homo sapiens
MCF7 [6] = experiment: Effect of compound with 10e-8 M estradiol on the growth of MCF-7 cells at a concentration 10 e-7 M, percentage of control value being 85; format: functional, Homo sapiens
MCF7 [7] = experiment: Effect on the growth of MCF-7 cells at a concentration of,10 e-7 M, percentage of control value being 20; format: functional, Homo sapiens
MCF7 [8] = experiment: Effect of compound with 10e-8 M estradiol on the growth of MCF-7 cells at a concentration 10 e-7 M, percentage of control value being 12; format: functional, Homo sapiens
MCF7 [9] = experiment: Effect of compound with 10e-8 M estradiol on the growth of MCF-7 cells at a concentration of 10 e-6 M, percentage of control value being 68; format: functional, Homo sapiens
MCF7 [10] = experiment: Effect on the growth of MCF-7 cells at a concentration of 10 e-7 M, percentage of control value being 67; format: functional, Homo sapiens
MCF7 [11] = experiment: Effect of compound on the growth of MCF-7 cells at a concentration of 10 e-6 M, percentage of control value being 35; format: functional, Homo sapiens
MCF7 [12] = experiment: Effect of compound with 10e-8 M estradiol on the growth of MCF-7 cells at a concentration 10 e-7 M, percentage of control value being 90; format: functional, Homo sapiens
MCF7 [13] = experiment: Effect of compound with 10e-8 M estradiol on the growth of MCF-7 cells at a concentration of,10 e-6 M, percentage of control value being 74; format: functional, Homo sapiens
MCF7 [14] = experiment: Effect on the growth of MCF-7 cells at a concentration of,10 e-7 M, percentage of control value being 87; format: functional, Homo sapiens
MCF7 [15] = experiment: Effect of compound on the growth of MCF-7 cells at a concentration of,10 e-6 M, percentage of control value being 85; format: functional, Homo sapiens
MCF7 [16] = experiment: Effect of compound with 10e-8 M estradiol on the growth of MCF-7 cells at a concentration 10 e-7 M, percentage of control value being 77; format: functional, Homo sapiens
MCF7 [17] = experiment: Effect of compound with 10e-8 M estradiol on the growth of MCF-7 cells at a concentration 10 e-7 M, percentage of control value being 91; format: functional, Homo sapiens
MCF7 [18] = experiment: Effect of compound with 10e-8 M estradiol on the growth of MCF-7 cells at a concentration of,10 e-6 M, percentage of control value being 90; format: functional, Homo sapiens
MCF7 [19] = experiment: Effect on the growth of MCF-7 cells at a concentration of,10 e-7 M, percentage of control value being 84; format: functional, Homo sapiens
MCF7 [20] = experiment: Effect of compound on the growth of MCF-7 cells at a concentration of,10 e-6 M, percentage of control value being 63; format: functional, Homo sapiens
[21] = biological target: Estrogen receptor (Rattus norvegicus) (UniProt P06211+Q62986)
Description: In vitro relative binding affinity for rat uterine estrogen receptor compared to [3H]estradiol

MCF7 [22] = experiment: Effect on the growth of MCF-7 cells at a concentration of,10 e-7 M, percentage of control value being 80; format: functional, Homo sapiens
MCF7 [23] = experiment: Effect of compound with 10e-8 M estradiol on the growth of MCF-7 cells at a concentration 10 e-7 M, percentage of control value being 13; format: functional, Homo sapiens

CCC(=C(c1ccc(O)cc1)c1ccc(OCCN(C)C)cc1)c1ccccc1
DNA (MCF7 [1]): 5.4 µg
DNA (MCF7 [2]): 6 µg
DNA (MCF7 [3]): 1.1 µg
DNA (MCF7 [4]): 3.8 µg
DNA (MCF7 [5]): 1.2 µg
DNA (MCF7 [6]): 14.2 µg

CC/C(=C(/c1ccc(OCCN(C)C)cc1)c1ccc(O)cc1C)c1ccccc1
DNA (MCF7 [7]): 1.6 µg
DNA (MCF7 [8]): 1 µg

CC/C(=C(/c1ccc(OCCN(C)C)cc1)c1cccc(O)c1)c1ccccc1 [DROLOXIFENE]
DNA (MCF7 [9]): 11.3 µg
DNA (MCF7 [10]): 11.2 µg
DNA (MCF7 [11]): 5.9 µg
DNA (MCF7 [12]): 15 µg

CC/C(=C(/c1ccc(OCCN(C)C)cc1)c1ccccc1O)c1ccccc1
DNA (MCF7 [13]): 12.4 µg
DNA (MCF7 [14]): 14.6 µg
DNA (MCF7 [15]): 14.2 µg
DNA (MCF7 [16]): 12.8 µg

CC/C(=C(\c1ccccc1)c1ccc(OCCN(C)C)cc1)c1ccccc1 [TAMOXIFEN]
DNA (MCF7 [17]): 15.2 µg
DNA (MCF7 [18]): 15.1 µg
DNA (MCF7 [19]): 14 µg
DNA (MCF7 [20]): 10.6 µg

CC/C(=C(\c1ccccc1)c1ccc(OCCN(C)C)cc1)c1cccc(O)c1
IC50 [21]: 30 nM

CC/C(=C(/c1ccc(OCCN(C)C)cc1)c1ccc(O)cc1O)c1ccccc1
DNA (MCF7 [22]): 6.6 µg
DNA (MCF7 [23]): 1.1 µg
